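96-well plates; 48 h exposure; 5 concentrations. Endpoints by linear interpolation between flanking doses. Not reached: highest tested concentration assigned. At the GI50, growth is halved.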 Active and inactive are the calls of the source. Cut-off read from the data, not from the text of the source: active = GI50 up to about 1.1 µM and inactive = higher.
Assays:
Experiment in all cases: DTP human tumour cell line panel, 48 h
CAKI-1 = system: CAKI-1
HL-60 = system: HL-60
OVCAR-4 = system: OVCAR-4
SNB-19 = system: SNB-19
SK-MEL-28 = system: SK-MEL-28
U-251 = system: U-251
Malme-3M = system: Malme-3M
ACHN = system: ACHN
KM12 = system: KM12
SF-295 = system: SF-295
HCT-116 = system: HCT-116
SF-268 = system: SF-268
K562 = system: K562
EKVX = system: EKVX
A549 = system: A549
HCT-15 = system: HCT-15
UO-31 = system: UO-31

Row | SMILES | GI50 (CAKI-1) | GI50 (HL-60) | GI50 (OVCAR-4) | GI50 (SNB-19) | GI50 (SK-MEL-28) | GI50 (U-251) | GI50 (Malme-3M) | GI50 (ACHN) | GI50 (KM12) | GI50 (SF-295) | GI50 (HCT-116) | GI50 (SF-268) | GI50 (K562) | GI50 (EKVX) | GI50 (A549) | GI50 (HCT-15) [µM] | GI50 (UO-31)
1 | COC(=O)c1c[nH]cc1CCCCc1c[nH]cc1C(=O)OC | > 100 µM (inactive) | 73.3 µM (inactive) | > 100 µM (inactive) | > 100 µM (inactive) | > 100 µM (inactive) | > 100 µM (inactive) | > 100 µM (inactive) | > 100 µM (inactive) | > 100 µM (inactive) | 73.3 µM (inactive) | > 100 µM (inactive) | > 100 µM (inactive) | > 100 µM (inactive) | > 100 µM (inactive) | > 100 µM (inactive) | – | –
2 | Cc1cc(C)cc(NC(N)=S)c1 | > 100 µM (inactive) | 30.8 µM (inactive) | > 100 µM (inactive) | > 100 µM (inactive) | > 100 µM (inactive) | 38.6 µM (inactive) | > 100 µM (inactive) | > 100 µM (inactive) | > 100 µM (inactive) | > 100 µM (inactive) | 35.5 µM (inactive) | 53.7 µM (inactive) | > 100 µM (inactive) | > 100 µM (inactive) | > 100 µM (inactive) | 17.9 | > 100 µM (inactive)
3 | CCOC(=O)/C(=C/c1ccc(C(F)(F)F)cc1)N(CC)CC | 58.6 µM (inactive) | > 100 µM (inactive) | 78.9 µM (inactive) | – | > 100 µM (inactive) | 41 µM (inactive) | 57.5 µM (inactive) | 42.1 µM (inactive) | 44.4 µM (inactive) | 84.7 µM (inactive) | 40 µM (inactive) | 72.3 µM (inactive) | > 100 µM (inactive) | > 100 µM (inactive) | 38.8 µM (inactive) | 40.6 | 46.1 µM (inactive)
4 | Sc1nnc(C(c2ccccc2)c2ccccc2)[nH]1 | – | > 100 µM (inactive) | – | > 100 µM (inactive) | > 100 µM (inactive) | > 100 µM (inactive) | > 100 µM (inactive) | > 100 µM (inactive) | > 100 µM (inactive) | > 100 µM (inactive) | > 100 µM (inactive) | > 100 µM (inactive) | > 100 µM (inactive) | > 100 µM (inactive) | > 100 µM (inactive) | > 100 | > 100 µM (inactive)

Source: ChEMBL document CHEMBL1201862, “PubChem BioAssay data set” (2004)
